Measurements published in ChEMBL document CHEMBL1201862, “PubChem BioAssay data set” (2004).
Active and inactive are the calls of the source. Rule as the data show it: actives have a measured IC50 and inactives only a lower limit.

What was measured:
Type in all cases: functional
[1] = biological target: T1, Caspase-3 (Homo sapiens, UniProt P42574);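 also: Dose-response selectivity test against caspase-3 for candidate inhibitors of sentrin-specific proteases (SENPs)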
T1 sequence (P42574 whole entry): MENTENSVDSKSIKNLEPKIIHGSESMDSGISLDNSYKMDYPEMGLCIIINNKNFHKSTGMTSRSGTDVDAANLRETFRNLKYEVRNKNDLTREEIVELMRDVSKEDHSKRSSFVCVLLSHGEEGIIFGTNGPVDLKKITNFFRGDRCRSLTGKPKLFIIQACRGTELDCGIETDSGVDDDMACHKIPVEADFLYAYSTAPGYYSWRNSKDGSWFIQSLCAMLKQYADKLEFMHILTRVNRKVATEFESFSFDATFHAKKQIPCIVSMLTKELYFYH

[2] = biological target: T2, Sentrin-specific protease 7 (Homo sapiens, UniProt Q9BQF6);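 also: Luminescence-based dose-response confirmation of ultra-high-throughput screening hits, measuring inhibition of SENP7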
T2 sequence (Q9BQF6 whole entry): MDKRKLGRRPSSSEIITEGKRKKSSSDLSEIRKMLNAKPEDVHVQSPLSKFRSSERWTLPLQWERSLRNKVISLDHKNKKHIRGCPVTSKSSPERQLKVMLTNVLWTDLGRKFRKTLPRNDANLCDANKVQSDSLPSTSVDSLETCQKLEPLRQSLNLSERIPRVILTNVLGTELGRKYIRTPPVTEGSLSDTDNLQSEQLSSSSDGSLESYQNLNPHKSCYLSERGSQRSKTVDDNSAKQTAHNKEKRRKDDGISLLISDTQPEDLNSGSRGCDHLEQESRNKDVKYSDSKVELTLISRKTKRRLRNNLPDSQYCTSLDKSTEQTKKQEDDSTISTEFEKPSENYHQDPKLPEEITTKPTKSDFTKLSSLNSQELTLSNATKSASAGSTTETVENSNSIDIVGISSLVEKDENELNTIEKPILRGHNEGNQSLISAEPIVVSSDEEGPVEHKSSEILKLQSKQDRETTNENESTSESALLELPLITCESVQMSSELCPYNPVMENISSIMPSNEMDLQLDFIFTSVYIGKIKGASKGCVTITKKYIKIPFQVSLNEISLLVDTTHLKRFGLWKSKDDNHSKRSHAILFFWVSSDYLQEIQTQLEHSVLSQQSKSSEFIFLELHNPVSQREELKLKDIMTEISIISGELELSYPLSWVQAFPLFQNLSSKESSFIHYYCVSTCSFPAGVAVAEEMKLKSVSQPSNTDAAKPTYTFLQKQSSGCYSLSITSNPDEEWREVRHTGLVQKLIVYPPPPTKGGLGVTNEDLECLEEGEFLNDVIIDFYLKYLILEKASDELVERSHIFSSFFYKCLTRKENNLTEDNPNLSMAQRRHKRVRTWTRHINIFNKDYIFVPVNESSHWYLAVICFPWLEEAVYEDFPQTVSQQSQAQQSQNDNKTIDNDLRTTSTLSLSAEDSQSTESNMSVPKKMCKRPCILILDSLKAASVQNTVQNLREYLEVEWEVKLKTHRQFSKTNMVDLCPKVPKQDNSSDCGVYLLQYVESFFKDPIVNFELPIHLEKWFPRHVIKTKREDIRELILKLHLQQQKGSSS

[3] = biological target: T3, Sentrin-specific protease 6 (Homo sapiens, UniProt Q9GZR1);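 also: Luminescence-based dose-response confirmatory assay of SENP6 inhibition, following up an ultra-high-throughput screen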
T3 sequence (Q9GZR1 whole entry): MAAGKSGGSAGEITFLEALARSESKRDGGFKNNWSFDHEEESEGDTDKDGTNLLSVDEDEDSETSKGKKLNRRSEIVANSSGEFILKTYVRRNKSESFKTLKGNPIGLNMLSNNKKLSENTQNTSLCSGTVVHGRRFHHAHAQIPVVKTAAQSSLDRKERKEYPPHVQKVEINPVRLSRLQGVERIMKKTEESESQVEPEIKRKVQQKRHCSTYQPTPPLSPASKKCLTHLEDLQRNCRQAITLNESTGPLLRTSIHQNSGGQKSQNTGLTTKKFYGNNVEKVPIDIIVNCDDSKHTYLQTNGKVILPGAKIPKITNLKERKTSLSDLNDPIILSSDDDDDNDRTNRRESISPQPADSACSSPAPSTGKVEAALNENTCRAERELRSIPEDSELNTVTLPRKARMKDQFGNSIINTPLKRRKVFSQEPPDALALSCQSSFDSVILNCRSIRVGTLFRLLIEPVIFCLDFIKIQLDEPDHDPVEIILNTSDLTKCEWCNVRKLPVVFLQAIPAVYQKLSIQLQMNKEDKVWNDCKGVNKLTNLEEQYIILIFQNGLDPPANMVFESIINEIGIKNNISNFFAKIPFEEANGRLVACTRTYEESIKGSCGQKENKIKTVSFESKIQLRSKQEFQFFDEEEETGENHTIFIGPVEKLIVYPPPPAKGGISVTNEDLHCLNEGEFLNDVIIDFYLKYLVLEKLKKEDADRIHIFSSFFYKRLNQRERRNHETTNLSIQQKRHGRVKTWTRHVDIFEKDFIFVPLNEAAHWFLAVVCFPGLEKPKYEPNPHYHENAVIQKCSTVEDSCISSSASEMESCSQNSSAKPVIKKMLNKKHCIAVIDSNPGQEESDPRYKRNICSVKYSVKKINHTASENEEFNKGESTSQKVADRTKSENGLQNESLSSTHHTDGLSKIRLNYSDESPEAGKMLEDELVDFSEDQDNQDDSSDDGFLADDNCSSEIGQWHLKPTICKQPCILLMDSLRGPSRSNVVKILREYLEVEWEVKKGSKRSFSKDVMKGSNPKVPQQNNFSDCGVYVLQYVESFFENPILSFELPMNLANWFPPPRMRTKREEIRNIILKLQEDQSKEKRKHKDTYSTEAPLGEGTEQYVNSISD

[4] = biological target: T4, Sentrin-specific protease 8 (Homo sapiens, UniProt Q96LD8);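 also: luminescence read-out of SENP8 inhibition, dose-response confirmation following an ultra-high-throughput screen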
T4 sequence (Q96LD8 whole entry): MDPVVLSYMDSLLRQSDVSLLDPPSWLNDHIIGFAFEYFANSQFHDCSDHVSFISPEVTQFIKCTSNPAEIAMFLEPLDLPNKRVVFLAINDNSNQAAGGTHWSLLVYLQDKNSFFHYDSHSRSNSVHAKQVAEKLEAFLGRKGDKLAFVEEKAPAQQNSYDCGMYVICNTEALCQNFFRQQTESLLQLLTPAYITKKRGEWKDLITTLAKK

Measured: IC50

COc1cc2c(cc1OC)-c1c(OC)c(OC)cc3c1[C@H](C2)N(C)CC3
active: [1] < 1.55 µM | [2] 7.64 µM | [3] 2.21 µM | [4] 5.13 µM

O=C1C(Cl)=C(N2CCC(C(=O)O)CC2)C(=O)c2ccccc21
active: [1] 15.6 µM | [2] 29.1 µM | [3] 12.6 µM | [4] 20.2 µM
